In ChEMBL document CHEMBL1157539, “Thousands of chemical starting points for antimalarial lead identification” (Nature, 2010):

Test system: Plasmodium falciparum
Assay: GSK_TCMDC: Inhibition of Plasmodium falciparum 3D7 in whole erythrocytes, using parasite LDH activity as an index of growth.
Format: functional, organism-based

SMILES | XC50 (Plasmodium falciparum, 3D7) | XC50
O=C(c1ccc(-c2ccc(Cl)cc2)o1)N1CCc2cc3nccc(N4CCN5CCC[C@H]5C4)c3cc21 | 170 nM | 
CN(Cc1cccc(C#N)c1)C1CCN(c2cc(NC(=O)c3ccc(F)cc3)ccn2)CC1 | 1070 nM | 
CN1CC[C@@H](Oc2cc(Nc3nc(-c4ccc(C#N)cc4)cs3)ccc2Cl)C1 | 821 nM | 
CC(C)(C)C1CC(=O)CC2C(=O)N(C3CCCCC3)C(=O)C21 (stereo not drawn) | 421 nM | 
CCCN(CCCCCCNCCc1ccc(Cl)cc1)CCc1ccc(O)c(O)c1 | 943 nM | 
Cn1cncc1C(=O)Nc1cccc(-c2ccc(-c3nc4ccccc4[nH]3)cc2)c1 | 854 nM | 
CCN(CC)CC#Cc1ccc2[nH]c(C)c(Cl)c(=O)c2c1 | 702 nM | 
COc1cc(C=CC(=O)N2CCC(CCN3CCC(c4c[nH]c5ccccc45)CC3)CC2)cc(OC)c1 | 909 nM | 
O=C(COc1ccc(F)cc1)NC1CCN(c2ccnc3cc(Cl)ccc23)C1 (stereo not drawn) | 265 nM | 
c1ccc(CN2CCC(NCc3ccc(-c4cccc(CNC5CCCC5)c4)cc3)CC2)cc1 | 339 nM | 
O=C(Cn1c(CCc2cccc(F)c2F)cc(=O)c2ccccc21)N(CCN1CCCCC1)Cc1ccc(-c2ccc(C(F)(F)F)cc2)cc1 | 764 nM | 
CC1CN(c2cnn(Cc3ccc(NC(=O)Nc4cccc(C(F)(F)F)c4)cc3)c(=O)c2Cl)CC(C)N1 (stereo not drawn) | 940 nM | 
CC(C)(Oc1ccc(Cl)cc1)C(=O)NCCC1CCN(CCCCCNC(=O)/C=C/c2ccc(Cl)c(Cl)c2)CC1 | 936 nM | 
COc1ccc(-c2nc3c(NCc4ccccc4)nccc3[nH]2)c(OC)c1 | 778 nM | 
OC(CNc1ccnc(Nc2cccc(Cl)c2)n1)c1cccc(C(F)(F)F)c1 (stereo not drawn) | 513 nM | 
CCC(=O)N[C@@H]1CN[C@@H](C#Cc2cc3c(Nc4ccc(OCc5cccc(F)c5)c(Cl)c4)ncnc3s2)C1 | 1120 nM | 
Cc1ccnc(Nc2nc(-c3ccccn3)cs2)c1 | 998 nM | 
CCCCCc1ccc(NC(=O)Nc2ccc(Cn3ncc(N4CCCNCC4)c(Cl)c3=O)cc2)cc1 | 1140 nM | 
O=C(N[C@H]1CCN(Cc2ccc(OCCN3CCNCC3)c(Cl)c2)C1)c1ccc(Cl)c(Cl)c1 | 1060 nM | 
O=C(Nc1ccc(N2CCNCC2)cc1)c1ccn2ncc(-c3cccc(Cl)c3)c2n1 | 922 nM | 
O=c1cc(NCCCNCc2cn(S(=O)(=O)c3ccccc3)c3ccccc23)[nH]c2ccccc12 | 879 nM | 
CCCCCCCc1c(C)nc2ccccc2c1O | 206 nM | 
NC1=NC2(CCCC2)C(c2ccc(Cl)c(Cl)c2)C(N)=N1 (stereo not drawn) | 987 nM | 
CCN1CCC2(c3cccc(OC)c3)Cc3nc4ccccc4c(-c4ccccc4)c3CC2C1 (stereo not drawn) | 348 nM | 
Cc1cc(NCCc2ccccc2)nc(NC(=N)Nc2ccccc2Cl)n1 | 789 nM | 

SMILES | XC50 (Plasmodium falciparum, 3D7) | XC50
CCn1c(-c2nonc2N)nc2c(-c3cccc(NC(=O)Nc4ccc5c(c4)CCC5)c3)ncc(OCCCN)c21 | 783 nM | 
CON=Cc1sc(CNCCCN=c2cc(O)c3ccccc3[nH]2)c(C)c1Br | 962 nM | 
N#Cc1cncc(-c2nc3c(N4CCCC(N)C4)cccc3n2CCNCc2ccccc2)c1 (stereo not drawn) | 768 nM | 
CCCCN(C(=O)c1ccccc1Cl)c1nnc(-c2ccccc2C)s1 | 1020 nM | 
FC(F)(F)c1ccc2[nH]ccc(=NN=Cc3ccccc3)c2c1 | 1170 nM | 
O=C(Nc1cccc(CN2CCCN(Cc3ccccc3)CC2)c1)c1cc2ccccc2s1 | 1200 nM | 
CC(C)CCNC(=O)C1Cc2c([nH]c3ccc(Br)cc23)C2(CCN(CCc3ccccc3)CC2)N1 (stereo not drawn) | 688 nM | 
O=C(C=Cc1ccccc1Br)NC1CCC(CN2CCC(c3c[nH]c4ccccc34)CC2)CC1 (stereo not drawn) | 737 nM | 687 nM
Cc1ccc(NC(=O)c2ccc(N3CCC(c4ccccc4C)CC3)nc2)cc1 | 1400 nM | 
CN1CCN(CCCNCc2ccc(Nc3nccc(Nc4ccc(Oc5ccccc5)cc4)n3)cc2)CC1 | 635 nM | 
Cc1nc(-c2nc(NCc3ccncc3)ncc2-c2ccsc2)sc1C | 989 nM | 
CCCNCc1ccc(-c2ccc(CN(CCOC)C(=O)c3ccc([N+](=O)[O-])c(C)c3)cc2)nc1 | 868 nM | 
O=C(NC1CCC(CN2CCC(c3c[nH]c4ccccc34)CC2)CC1)[C@H]1Cc2ccccc2CN1 (stereo partly drawn) | 948 nM | 
COc1cc(Nc2nccc(N3CCC(NC(=O)C(C)c4ccc(Cl)cc4)C3)n2)cc(OC)c1OC (stereo not drawn) | 757 nM | 
Cc1cc(N[C@@H](CC(C)C)C(=O)NCc2cccs2)nc(NCCc2ccc(F)cc2)n1 | 800 nM | 
CCCCCCOc1ccc(C(=O)N[C@H]2CCN(CCCCCNC(=O)/C=C/c3ccc(Cl)c(Cl)c3)C2)cc1 | 695 nM | 
Cc1[nH]c2ccccc2c(=O)c1Br | 843 nM | 
CNCCNCc1cccc(-c2cccc(-c3nc4cccc(C)c4[nH]3)c2)c1 | 766 nM | 
Cc1nc(Nc2cc(Cl)ccc2O)nc(Nc2cc(Cl)ccc2O)c1[N+](=O)[O-] | 29.4 nM | 
O=[N+]([O-])c1cc(/C=N/Nc2nc3nonc3nc2Nc2ccc(F)cc2)c(Cl)cc1Cl | 759 nM | 
CC[C@H]1CN2CC[C@@H]1C[C@H]2[C@H](O)c1cc(-c2c(C)noc2C)nc2ccc(OC)cc12 | 33 nM | 
CCCC[C@@H](C(=O)NCCc1ccc(Cl)cc1)N1C(=O)CCC1C(=O)Nc1ccc(Cl)c(Cl)c1 (stereo partly drawn) | 873 nM | 
Cc1noc(-c2ccc3c(c2)CCN(CCC2CCC(NC(=O)/C=C/c4ccc(F)cc4)CC2)CC3)n1 (stereo not drawn) | 1030 nM | 
CN1CCN(c2ccnc3ccc(NC(=O)Nc4ccc(-c5ccccc5)cc4)cc23)CC1 | 776 nM | 
CC1N=C(N)N=C(N)N1OCc1ccccc1 (stereo not drawn) | 32.9 nM | 

SMILES | XC50 (Plasmodium falciparum, 3D7) | XC50
CN1CCN(c2ccnc3cc4ccccc4cc23)CC1 | 947 nM | 
CCCC1N=C(N)N=C(N)N1c1cccc(C(F)(F)F)c1 (stereo not drawn) | 594 nM | 
COC(=O)c1ccc(NC(=O)Nc2cccc(CCNCc3ccccc3)c2)cc1 | 867 nM | 
OCCNc1nc(Nc2ccc(Cl)cc2)nc2ccccc12 | 708 nM | 
Cc1ccc2c(Cl)c(C(=O)N3CC(C)OC(C)C3)sc2c1 (stereo not drawn) | 176 nM | 
COc1cccc(OC2CCN(C(=O)c3ccc(-c4ccc(N5CCCC5=O)cc4C)cc3)CC2)c1 | 1010 nM | 
CCc1nonc1NC(=O)c1oc2c(C)c(C)ccc2c1C | 879 nM | 
Cc1cc(NC(=O)NCCN2CCC(NC(=O)c3ccc(Cl)cc3)CC2)c2ccccc2n1 | 381 nM | 
COc1cc2nc(N3CCC(CNC(=O)c4ccc(-c5ccc(C(=O)N(C)C)cc5C)cc4)CC3)nc(N3CCN(C)CC3)c2cc1OC | 1230 nM | 
CCCCCCOc1ccc(N2C(N)=NC(N)=NC2(C)C)cc1 | 344 nM | 
CN(C)CCOc1cc(NC(=O)Nc2ccc(-c3ccncc3)c(C(F)(F)F)c2)ccc1Cl | 991 nM | 
Cc1cc(N(C)C)nc(Nc2ccc(NC(=O)C(C)Oc3ccccc3)cc2)n1 (stereo not drawn) | 952 nM | 
N=c1c2nc(-c3c(F)cccc3Cl)[nH]c(=O)c2[nH]c(=O)n1-c1ccccc1 | 678 nM | 
CC(Sc1nnc(-c2cccs2)[nH]1)C(=O)c1c[nH]c2ccccc12 (stereo not drawn) | 1800 nM | 
COc1ccc(S(=O)(=O)N(CCCN2CCN(C)CC2)Cc2csc(-c3ccc(CNCc4ccccc4)cc3)n2)cc1 | 949 nM | 
Cc1cc(-c2cccc3c(C(=O)N4CCc5cc6nccc(N7CCCN(C)CC7)c6cc54)cccc23)cc(C)n1 | 437 nM | 
CN(Cc1cccc(O)c1)C1CCCN(c2cc(NC(=O)c3ccc(F)cc3)ccn2)C1 (stereo not drawn) | 1070 nM | 
O=c1c2ccc(Sc3ccccn3)cc2n(-c2ccccc2)c2cc(Sc3ccccn3)ccc12 | 203 nM | 
COc1cc(C(=O)NC2CCN(Cc3ccccc3)CC2)ccc1-c1nc2cc(Cl)c(Cl)cc2[nH]1 | 521 nM | 
O=C(/C=C/c1ccc(Cl)c(Cl)c1)NCCCCCN1CCC(NC(=O)c2ccc(F)c(F)c2)CC1 | 788 nM | 
COc1ccc(NC(=O)/C=C/c2ccc(Oc3ccccc3Cl)c([N+](=O)[O-])c2)cc1OCCN(C(C)C)C(C)C | 883 nM | 
OC1CCCN(Cc2ccc(-c3cccc(-c4nc5ccccc5[nH]4)c3)cc2)C1 (stereo not drawn) | 1340 nM | 
COc1ccc2nccc([C@@H](O)CN3CCC(NCc4nc5c(C#N)cccc5[nH]4)CC3)c2c1 | 999 nM | 
CN(C)CCC1CCN(CCS(=O)(=O)c2cccc(Nc3ncc(-c4cccc(F)c4)cn3)c2)CC1 | 1060 nM | 
COc1cccc(C=CC(=O)N(CCN)Cc2ccccc2)c1 | 815 nM | 

SMILES | XC50 (Plasmodium falciparum, 3D7) | XC50
CCN(CC)CCN(Cc1ccc(-c2ccc(C(F)(F)F)cc2)cc1)C(=O)Cn1c(SCc2ccc(F)c(F)c2F)nc(=O)c2c1CCC2 | 1020 nM | 
CCCCC1(c2ccc(F)cc2)NC(=O)N(CC(=O)c2cc(C)n(Cc3ccco3)c2C)C1=O (stereo not drawn) | 983 nM | 
COC(=O)Cc1ccc(N)c2ccccc12 | 702 nM | 
CCOc1cc2ncnc(Nc3ccc(OCc4ccccc4F)c(Cl)c3)c2cc1OCC | 601 nM | 
Cc1cccc(C(O)CNc2ccnc(Nc3cccc(-c4csc(C)n4)c3)n2)c1 (stereo not drawn) | 675 nM | 
CC(=O)Nc1cccc(C(=O)Nc2ccc(-c3ccc(-c4nc5cccc(C)c5[nH]4)s3)cc2)c1 | 1740 nM | 
CCn1cc2c3c(cc(C(=O)N[C@@H](Cc4ccccc4)[C@H](O)CNC4CCOCC4)cc31)N(C)S(=O)(=O)CC2 | 208 nM | 
O=C(/C=C/c1ccc(Cl)c(Cl)c1)NCCCCCN1CCC(NC(=S)Nc2ccc(F)cc2F)CC1 | 805 nM | 
O=C(Nc1ccccc1)Nc1cccc(-c2cc(CNCCc3ccccc3)sc2-c2ccncc2)c1 | 598 nM | 
N#Cc1c(N)n(CCc2ccc(F)cc2)c2nc3ccccc3nc12 | 973 nM | 
Clc1ccc(OCc2ccccc2)c(Cc2ccc(-c3nc4cnccc4[nH]3)o2)c1 | 754 nM | 
COc1ccccc1C1CCN(C2CCC(NC(=O)/C=C/c3cccc(Cl)c3F)CC2)CC1 (stereo not drawn) | 1290 nM | 
COCCN1CCC(N(Cc2ccc(-c3ccc(C(F)(F)F)cc3)cc2)C(=O)Cn2c(CCc3cccc(F)c3F)cc(=O)c3c2CCC3)CC1 | 1320 nM | 
COc1cccc(CC(=O)N2CCC(n3c(C)nc4ccc(C)cc43)CC2)c1 | 114 nM | 
c1ccc(C2CCC(N3CCC(N4CCN(c5ccccc5)CC4)CC3)CC2)cc1 (stereo not drawn) | 764 nM | 
O=C1NC(c2ccccc2)C2(CCN(CC(O)COc3cccc4ncccc34)CC2)O1 (stereo not drawn) | 743 nM | 
CO/C(=C\C=C\c1cc2cc(Cl)c(Cl)cc2[nH]1)C(=O)NCCCN1CCN(c2ccc(OC)cc2)CC1 | 700 nM | 
CCOCCCn1c(=N)c(C(=O)NC(C)c2ccccc2)cc2c(=O)n3cccc(C)c3nc21 (stereo not drawn) | 1200 nM | 
NC1CCN(CCc2ccc(NS(=O)(=O)c3ccc(-c4ccccc4)cc3)cc2)CC1 | 1020 nM | 
COc1cc(NC(=O)/C=C/c2cc(F)cc(F)c2F)cc(OCCN2CCC3(CC2)OCCO3)c1 | 269 nM | 
CS(=O)(=O)Nc1ccc2[nH]cc(C3CCN(CC(O)C4CCN(C(=O)/C=C/c5ccc(Cl)c(Cl)c5)CC4)CC3)c2c1 (stereo not drawn) | 1760 nM | 
CC[C@H](C)CNC(=O)c1ccnc(-c2cccc(CN3CCC(N4CCCC4)CC3)c2)c1 | 851 nM | 
